Experimental data published in patent US9221810B2, “Substituted bicyclic aromatic compounds as S-nitrosoglutathione reductase inhibitors” (Nivalis Therapeutics, Inc., priority 2010, dated 2015).

Tests used:
[1] = tested on: cigarette smoke-induced COPD (acute 4 day); assay: Acute (4 day) cigarette smoke exposure COPD model; format: in vivo, female C57Bl/6 mice
Description: (§1) The efficacy of GSNOR inhibitors was assessed in a mouse model of chronic obstructive pulmonary disease (COPD) induced by short duration (4 days or 11 days) of exposure to cigarette smoke. Infiltration of inflammatory cells into the bronchoalveolar lavage fluid (BALF) and BALF levels of chemokines involved in inflammation and tissue turnover/repair were measured to assess the influences of GSNOR inhibitors on some of the early events associated with the initiation and progression of COPD.
(§2) Efficacy of GSNOR inhibitors against COPD was explored using acute (4 day) and subchronic (11 day) models of cigarette smoke-induced COPD in mice. […] In animal models, changes in lung pathology are only evident after extended (several months) duration of exposure to cigarette smoke, thus making chronic models prohibitive as effective screening tools. More recently, models exploring inflammatory responses after short duration (2 weeks or less) of smoke exposure in mice have been utilized as tools for screening efficacy and mechanisms of action of novel therapeutics against COPD. The key roles of inflammation in the initiation and progression of COPD, make these short duration models relevant for initial tests of efficacy of novel therapeutics.
Acute (4 Day) Smoke Exposure Model: Female C57Bl/6 mice (N=8 per group) were exposed to cigarette smoke using a whole body exposure chamber. Mice were exposed daily for 4 consecutive days to 4 cycles of smoke from 6 sequential cigarettes (Kentucky 3R4F without filter) with a 30 minute smoke free interval between cycles. GSNOR inhibitors were administered daily via oral dosing at 10 mg/kg/day for 7 days starting 2 days prior to smoke exposure and continuing 1 day post-exposure. The effects of GSNOR inhibitors were assessed by quantitating the numbers of total cells, leukocytes, and leukocytes differentials in the BALF via light microscopy and the levels of BALF chemokines via ELISA at approximately 24 h after the last smoke exposure. The effect of GSNOR inhibitors were compared to vehicle treated controls. The PDE4 inhibitor, roflumilast, was used as the positive control for the study. A group of naïve mice (N=8) was exposed to air and used as a negative control for the study.

[2] = tested on: cigarette smoke-induced COPD (subchronic 11 day); assay: Subchronic (11 day) cigarette smoke exposure COPD model; format: in vivo, female C57Bl/6 mice
Description: as §1, §2
Subchronic (11 Day) Smoke Exposure Model: Female C57Bl/6 mice (N=10 per group) were exposed to cigarette smoke generated from Marlboro 100 cigarettes without filters. Exposure times were 25 min. on study day 1, 35 min. on study day 2, and 45 min. on study days 3 to 11. GSNOR inhibitors were administered one hour prior to smoke exposure on each day. GSNOR inhibitors were dosed orally at 1 to 10 mg/kg/day for 11 days. The effects of GSNOR inhibitors were assessed by quantitating the number of total cells, and leukocytes differentials in the BALF via light microscopy at 24 h after the last exposure. The effect of GSNOR inhibitors were compared to vehicle treated controls and expressed as percent inhibition of the cigarette smoke induced increases in BALF cell numbers. Roflumilast was used as the positive control for the study and was dosed at 5 mg/kg/day. A group of naïve mice (N=10) was exposed to air and dosed with vehicle as a negative control for the study.

[3] = target: T1, GSNOR (Homo sapiens, UniProt P11766); assay: GSNOR assay (inhibition of GSNOR activity, NADH absorbance at 340 nm); format: biochemical; details: printed as 'about <'; 0.240 mM GSNO, 0.300 mM NADH, pH 7.4, 25° C.
T1 construct: made in house; host or cells: E. coli (arabinose-induced)
T1 sequence (P11766 whole entry): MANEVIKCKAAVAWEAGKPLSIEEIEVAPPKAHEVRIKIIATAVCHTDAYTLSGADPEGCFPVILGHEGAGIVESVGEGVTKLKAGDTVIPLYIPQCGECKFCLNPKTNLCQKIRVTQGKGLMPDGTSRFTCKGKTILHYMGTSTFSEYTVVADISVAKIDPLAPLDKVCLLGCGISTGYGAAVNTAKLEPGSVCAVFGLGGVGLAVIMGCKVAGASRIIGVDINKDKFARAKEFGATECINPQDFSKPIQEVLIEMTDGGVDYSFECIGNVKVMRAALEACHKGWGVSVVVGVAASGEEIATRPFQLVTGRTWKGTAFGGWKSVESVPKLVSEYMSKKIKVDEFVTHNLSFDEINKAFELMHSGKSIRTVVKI
Description: GSNOR expression and purification is described in Biochemistry 2000, 39, 10720-10729.
GSNOR Fermentation: Pre-cultures were grown from stabs of a GSNOR glycerol stock in 2XYT media containing 100 ug/ml ampicillin after an overnight incubation at 37° C. Cells were then added to fresh 2XYT (4 L) containing ampicillin and grown to an OD (A600) of 0.6-0.9 at 37° C. before induction. GSNOR expression was induced with 0.1% arabinose in an overnight incubation at 20° C.
GSNOR Purification: E. coli cell paste was lysed by nitrogen cavitation and the clarified lysate purified by Ni affinity chromatography on an AKTA FPLC (Amersham Pharmacia). The column was eluted in 20 mM Tris pH 8.0/250 mM NaCl with a 0-500 mM imidazole gradient. Eluted GSNOR fractions containing the Smt-GSNOR fusion were digested overnight with Ulp-1 at 4° C. to remove the affinity tag then re-run on the Ni column under the same conditions. GSNOR was recovered in the flowthrough fraction and for crystallography is further purified by Q-Sepharose and Heparin flowthrough chromatography in 20 mM Tris pH 8.0, 1 mM DTT, 10 uM ZnSO4.
GSNOR Assay: GSNO and enzyme/NADH Solutions are made up fresh each day. The solutions are filtered and allowed to warm to room temperature. GSNO solution: 100 mM NaPO4 (pH 7.4), 0.480 mM GSNO. 396 μL of GSNO Solution is added to a cuvette followed by 8 μL of test compound in DMSO (or DMSO only for full reaction control) and mixed with the pipette tip. Compounds to be tested are made up at a stock concentration of 10 mM in 100% DMSO. 2 fold serial dilutions are done in 100% DMSO. 8 μL of each dilution are added to an assay so that the final concentration of DMSO in the assay is 1%. The concentrations of compounds tested range from 100 to 0.003 μM. Enzyme/NADH solution: 100 mM NaPO4 (pH 7.4), 0.600 mM NADH, 1.0 μg/mL GSNO Reductase. 396 μL of the Enzyme/NADH solution is added to the cuvette to start the reaction. The cuvette is placed in the Cary 3E UV/Visible Spectrophotometer and the change in 340 nm absorbance/min at 25° C. is recorded for 3 minutes. The assays are done in triplicate for each compound concentration. IC50's for each compound are calculated using the standard curve analysis in the Enzyme Kinetics Module of SigmaPlot.
Final assay conditions: 100 mM NaPO4, pH 7.4, 0.240 mM GSNO, 0.300 mM NADH, 0.5 μg/mL GSNO Reductase, and 1% DMSO. Final volume: 800 μL/cuvette.

[4] = oral 10 mg/kg/day for 7 days, vs vehicle treated controls, p<0.05

Row | Compound | BALF chemokines ([1]; acute 4 day smoke model) | effects compared to roflumilast (positive control) ([1]; acute 4 day smoke model) | decrease of eosinophils in BALF [1, 4] [%] | decrease of leukocytes in BALF [1, 4] [%] | decrease of macrophages in BALF [1, 4] [%] | decrease of neutrophils in BALF [1, 4] [%] | decrease of total cells in BALF [1, 4] [%] | inhibition of lymphocytes in BALF ([2]; oral 5 mg/kg/day) [%] | inhibition of macrophages in BALF ([2]; oral 5 mg/kg/day) [%] | inhibition of neutrophils in BALF ([2]; oral 5 mg/kg/day) [%] | inhibition of total cells in BALF ([2]; oral 5 mg/kg/day) [%] | inhibition of smoke-induced increase in eosinophils in BALF ([2]; oral 10 mg/kg/day for 11 days) [%] | inhibition of smoke-induced increase in lymphocytes in BALF ([2]; oral 10 mg/kg/day for 11 days) [%] | inhibition of smoke-induced increase in macrophages in BALF ([2]; oral 10 mg/kg/day for 11 days) [%] | inhibition of smoke-induced increase in neutrophils in BALF ([2]; oral 10 mg/kg/day for 11 days) [%] | inhibition of smoke-induced increase in total cells in BALF ([2]; oral 10 mg/kg/day for 11 days) [%] | IC50 [3] [nM] | dose response of effect ([2]; 1, 5, or 10 mg/kg/day) | effects compared to roflumilast (positive control) ([2]; subchronic 11 day model, roflumilast 5 mg/kg/day)
1 | O=C(O)c1ccc(-c2ccc3cc(O)ccc3n2)cc1 [Example 3, 4-(6-hydroxyquinolin-2-yl)benzoic acid] | restored BALF chemokines towards levels observed in naïve mice | comparable to or greater than those observed for roflumilast | 95 | 80 | 75 | 84 | 66 | 46 | 23 | 29 | 22 | 70 | 49 | 24 | 41 | 25 |  |  | 
2 | O=C(O)c1ccc(-c2ccc3cc(O)ccc3n2)c(Cl)c1 [Example 8, 3-chloro-4-(6-hydroxyquinolin-2-yl)benzoic acid] |  |  |  |  |  |  |  |  |  |  |  |  |  |  |  |  | < 100 | no dose response of effect | comparable to those of roflumilast
